In ChEMBL document CHEMBL2086334, “Fluorogenic assay of alkaline phosphatase activity based on the modulation of excited-state intramolecular proton transfer” (Bioorg Med Chem Lett, 2012):
The source made the active and inactive calls. The rule behind the calls is not given here.

Key:
[1] = Activity of alkaline phosphatase assessed as compound hydrolysis at 20 uM assessed as increase in fluorescence intensity every 1 min for 10 mins by fluorescence spectrophotometry relative to control
[2] = Activity of alkaline phosphatase assessed as compound hydrolysis assessed as increase in fluorescence intensity measured every 30 secs for 10 mins by Lineweaver-Burk plot analysis
[3] = Activity of levamisole-pretreated alkaline phosphatase assessed as compound hydrolysis at 20 uM measured every 0.5 mins for 10 mins by fluorescence spectrophotometry
[4] = Activity of alkaline phosphatase assessed as compound hydrolysis at 20 uM at 0.1 to 50 nM enzyme concentration measured every 1 min for 10 mins by fluorescence spectrophotometry
[5] = Inhibition of alkaline phosphatase

SMILES	fold change (FC) [1]	Km [2] [µM]	kcat [2] [s⁻¹]	Activity [3]	Activity [4]	IC50 [5] [µM]
O=P(O)(O)Oc1ccccc1-c1nc(-c2ccccc2)cs1	455	1.9	0.09	inactive	Active	–
c1ccc([C@H]2CN3CCSC3=N2)cc1 [LEVAMISOLE]	–	–	–	–	–	13.3
